Patent US4997926A, “Deaminase-stable anti-retroviral 2-halo-2',3'-dideoxy” (Scripps Clinic and Research Foundation, priority 1987, dated 1991)
Like-named read-outs stand apart in the source and are kept apart here.

Assays:
[1] = target: T1, calf intestinal adenosine deaminase (Bos taurus, UniProt P56658); experiment: Metabolism by adenosine deaminase (spectrophotometric deamination, Lineweaver-Burke); assay type: biochemical
T1 sequence (P56658 1-363): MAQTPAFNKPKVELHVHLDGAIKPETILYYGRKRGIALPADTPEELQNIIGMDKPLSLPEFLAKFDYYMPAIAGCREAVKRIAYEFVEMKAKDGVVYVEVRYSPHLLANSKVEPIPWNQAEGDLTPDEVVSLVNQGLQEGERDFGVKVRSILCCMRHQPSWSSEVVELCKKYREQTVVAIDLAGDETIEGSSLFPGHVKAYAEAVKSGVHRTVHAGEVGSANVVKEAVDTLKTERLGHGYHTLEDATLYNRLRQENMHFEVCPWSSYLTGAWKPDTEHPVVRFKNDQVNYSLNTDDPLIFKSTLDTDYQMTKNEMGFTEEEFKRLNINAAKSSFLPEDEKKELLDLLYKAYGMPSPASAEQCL
Description: ^1 The indicated nucleosides at concentrations from 5-200 uM were
incubated at 18-20° C. with 0.01 EU/ml calf intestinal adenosine
deaminase in 10 mM sodium phosphate, pH 7.5. Deamination was monitored
spectrophotometrically at 265 nanometers (nm) and 250 nm, as described
The individual nucleosides, at concentrations from 5-200 uM in 10 mM sodium phosphate, pH 7.5, were incubated at 18-20 degrees C. with 0.01 EU/ml calf intestinal adenosine deaminase. The change in the optical density at 265 nm and 250 nm was monitored spectrophotometrically.

[2] = tested on: deoxycytidine kinase deficient CEM T cells (clone AraC-8D); assay type: in vitro ADME, human
Description: ^1 Human CEM T cells, or variants deficient in either deoxycytidine
kinase, or deoxycytidine kinase plus adenosine kinase, were incubated at
density of 5 × 10^7 cells/ml in medium containing 3 uM [8^3
H2-chloro-2',3dideoxyadenosine. After 4 hours, the nucleotides in the
methanolsoluble extracts were determined after separation by HPLC, as
described in the Materials and Methods.
The human T lymphoblastoid cell line, CCRF-CEM, and mutants deficient in either deoxycytidine kinase (clone AraC-8D), or deoxycytidine kinase plus adenosine kinase (clone AraC-8DM10-5) were obtained and propagated as described previously [Foley et al., (1965) Cancer, 18:552-529 and Hershfield et al., (1982) J. Biol. Chem., 257:6380-6386]. For metabolic studies, the cells were cultured in RPMI 1640 medium supplemented with 2 mM L-glutamine and 10 percent fetal bovine serum at a density of 2×10^7 cells/ml in the presence of radiolabelled dideoxynucleosides, as indicated earlier. Some cultures were pre-incubatedfor 30 minutes either with 5 uM 2'-deoxycoformycin or 50 uM coformycin. After 4 hours of incubation the cells were harvested by centrifugation.
The cell pellets were washed with Hank's balanced salt solution at 4 degrees C., and extracted with 1 ml 60 percent methanol/water at -20 degrees C. for 10 minutes. Initial studies included 2',3'-dideoxyadenosine5'-triphosphate as an internal recovery marker. The nucleotides were fractionated by high performance liquid chromatography on an Whatman Partisil-10 SAX column, applying a gradient of zero to 100 percent buffer B in buffer A. Buffer A was 7 mM potassium phosphate pH 3.4. Buffer B was 0.5 M potassium phosphate, pH 3.4, one M KCl. The flow rate was 1.5 ml/minute, 1 minute fractions were collected. Buffer A was used alone for the first ten fractions after which elution with Buffer B began and was continued through fraction thirty, after which the eluting buffer was completely Buffer B. The nucleoside was eluted by about fraction six. The monophosphate eluted between about fractions fifteen and eighteen, the diphosphate between about fractions twenty-seven and thirty-two, and the triphosphate eluted between about fractions fifty-one and about sixty-five.

[3] = tested on: HIV (strain LAV) in MT-2 cells; experiment: HIV-induced syncytia formation and cytopathic effect in MT-2 T lymphoblasts; assay type: cell-based
Excerpt: The anti-HIV activities of the 2-halo-2',3'-dideoxyadenosine derivatives were first assayed in human MT-2 T lymphoblasts, as this system readily permitted a differentiation between anti-retroviral and anti-proliferativeeffects Exposure of the MT-2 T cell line to cell-free HIV led to the formation of syncytia within 4-5 days, and to a parallel decline in cell viability.
The MT-2 human lstoid cell line, which carries the human T cell leukemia virus type I (HTLV-1) genome, was used to assess the cytopathic effects of HIV, and the protective effects of the various nucleosides. […] The formation of syncytia, with resultant cell death, depends upon the expression on the cell-surface of the HIV envelope glycoproteins gp160, gp120, and gp4l, by cells that bear the differentiation antigen CD4 (T4) [Lipson et al., (1986) Nature, 323:725-728].
In the reported studies, the formation of syncytia in the MT-2 cell line (provided by J. Riggs and M. Aschen, State Department of Public Health, Berkelye, CA) was a sensitive and reproducible system to follow both the course of HIV infection and the potential cytotoxic effects of the added nucleosides. HIV (strain LAV) maintained in CEM cell culture was obtained from F. Barre-Sinoussi, J. C. Chermann and L. Montagnier (Institute Pasteur, Paris).
Cell-free virus was prepared by mixing LAV-infected CEM cells with two liters of 2×10^6 cells/ml of uninfected CEM cells at a ratio of 1:20 and incubating at 37 degrees C. for six days at which time, more than 80 percent of the cells expressed the p24 (gag) antigen using mouse monoclonal antibody M33, obtained from F. Vernoese di Marzo and M. Sarngadharan (Litton Bionetics, Rockville, Md.) using an enzyme immunofiltration staining method [Cleveland et al. (1987) J. Clin. Microbiol., 25:416-420]. The cells were centrifuged at 750×g for 10 minutes. The clarified supernatant was then titered by terminal dilution assay in 96 well microtiter plates containing 6×10^4 MT-2 cells per well suspended in a final volume of 200 ul RPMI 1640 medium containing 10 percent fetal bovine serum, 2 mM glutamine and […].
When HIV was added to this microtiter culture system at a multiplicity of infection of 0.1 TCID50 /cell, multinucleated giant cells appeared within 48 hours, and the majority of cells were fused in syncytia structures by day 4. The appearance of giant cells correlated with detectable antigens and RNA of HIV.
For measurement of antiviral activity, different concentrations of the assayed compounds were added to duplicate wells at the time of infection, and the cultures were incubated at 37 degrees C. After 4 and 5 days, the numbers of syncytia per culture were enumerated microscopically.
The results presented herein were confirmed in five separate experiments. Controls containing uninfected and infected cells with and without anti-retroviral nucleosides were included.
The results were expressed in semi-quantitative units that take into account the growth pattern of MT-2, and the ability of the HIV to cause both syncytia formation and cell death. In this unit system, 1 corresponds to 1-3 syncytia per well and no change in cell count compared to control cultures lacking virus; 2 corresponds to 3-10 syncytia per well and up to 20 percent cell death; 3 corresponds to 10-30 syncytia per well and a 20-70 percent drop in cell viability; 4 corresponds to more than 30 syncytia well and at least a 70 percent fall in the viable cell count.

[4] = Deoxycytidine kinase deficient CEM, 3 uM, 4 hours

Structure (SMILES)	Relative Efficiency (ratio of Vmax/Km) [1]	Nucleotide Formed, Diphosphate [2, 4] [pmols/10^8 cells/4 hrs]	Nucleotide Formed, Monophosphate [2, 4] [pmols/10^8 cells/4 hrs]	Nucleotide Formed, Triphosphate [2, 4] [pmols/10^8 cells/4 hrs]	accumulated phosphates relative to wild type CEM cells ([2]; deoxycytidine kinase deficient CEM variant, same culture conditions)	HIV-induced syncytia formation ([3]; 10 uM)	Relative Efficiency (ratio of Vmax/Km) ([1]; relative efficiency of deamination)	2',3'-dideoxyadenosine uptake [2]	cytopathic effect of HIV / virus-induced cell killing [3]
Nc1nc(Cl)nc2c1ncn2[C@H]1CC[C@@H](CO)O1 [2-chloro-2',3'-dideoxyadenosine]	0.04	0.8	1.7	3.4	about 20%	blocked syncytia formation			
Nc1ncnc2c1ncn2[C@H]1CC[C@@H](CO)O1 [2',3'-dideoxyadenosine, reference compound]							3.52	20-30 pmols/10^8 cells	inhibit the cytopathic effect of HIV
